Measured values from the supplement of paper PMC11208160.

Experiment: recombinant UMI read abundance after kanamycin selection (control-corrected) (log10(CPM+1)); higher = more efficient recombination; extreme values may be limits of the assay; sequences stand for … in AGTGCAGAGAAAATCGGCCAGTTTTCTCTGCCTGCAGTCCGCATGCCGTGGGACCCCTTGGGTTCTAACCTGTTGCCTAGATTTATGCAGCGGACTGCCTTTCTCCCAAAGTGATAAACCGG…AGGTTGGTTTCACT; site = the 11-nt donor
Procedure, shortened: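 In a pooled Escherichia coli screen for the IS621 bridge recombinase, donor and donor-binding-loop pairs were each placed with a 12-nt UMI on a plasmid bearing a promoterless kanamycin gene. This library was co-electroporated with a target plasmid encoding a fixed target and T7-inducible recombinase, and cells were plated either on IPTG (0.07 mM) plus kanamycin or without selection, in two replicates each. Recombinant UMIs were PCR-amplified across the donor–target junction and sequenced, and counts were converted to CPM, averaged over replicates, scaled by control-derived factors and reported as log10(CPM+1).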
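Note: IS621 bridge recombinase in Escherichia coli cells against a fixed T5 target plasmid.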

Sequence | recombinant UMI read abundance (log10)
CTTGAGTCATGGACCGGTTTTCCCGGTAATCCGTATTTGAT (site CTTGAGTCTAT) | 2.13
GCCTACCCATGGACCGGTTTTCCCGGTAATCCGTATTTGAA (site GCCTACCCTTT) | 0.0461
ATGGAGGCATGGACCGGTTTTCCCGGTAATCCGTATTTGGC (site ATGGAGGCTGC) | 2.53
CTAGGTTCATGGACCGGTTTTCCCGGTAATCCGTATTTGCG (site CTAGGTTCTCG) | 2.47
GTAGTCGCATGGACCGGTTTTCCCGGTAATCCGTATTTGGG (site GTAGTCGCTCC) | 0.132
ATAGTTTCATGGACCGGTTTTCCCGGTAATCCGTATTTGAC (site ATAGTTTCTGT) | 2.62
TAGGAATCATGGACCGGTTTTCCCGGTAATCCGTATTTGCC (site TAGGAATCTAG) | 1.1
ACTAGAACATGGACCGGTTTTCCCGGTAATCCGTATTTGTG (site ACTAGAACTCT) | 0
CCCATATCATGGACCGGTTTTCCCGGTAATCCGTATTTGAC (site CCCATATCTGT) | 0.446
GACGTAACATGGACCGGTTTTCCCGGTAATCCGTATTTGGC (site GACGTAACTGC) | 1.72
AACCGTGCATGGACCGGTTTTCCCGGTAATCCGTATTTGTG (site AACCGTGCTCA) | 0.0421
CGATATACATGGACCGGTTTTCCCGGTAATCCGTATTTGTA (site CGATATACTTA) | 2.25
GCGACGCCATGGACCGGTTTTCCCGGTAATCCGTATTTGTC (site GCGACGCCTGA) | 2.1
TCGCGAACATGGACCGGTTTTCCCGGTAATCCGTATTTGTA (site TCGCGAACTTA) | 1.18
GGTACATCATGGACCGGTTTTCCCGGTAATCCGTATTTGTT (site GGTACGTCTAA) | 0.0133
CCTAATACATGGACCGGTTTTCCCGGTAATCCGTATTTGGC (site CCTAATGCTGC) | 0
AACCAAACATGGACCGGTTTTCCCGGTAATCCGTATTTGAA (site AACCAAACTTT) | 1.31
CCTAAAGCATGGACCGGTTTTCCCGGTAATCCGTATTTGAT (site CCTAAAGCTAC) | 0
ATCTATACATGGACCGGTTTTCCCGGTAATCCGTATTTGAC (site ATCTATACTGG) | 0
TAGTGTACATGGACCGGTTTTCCCGGTAATCCGTATTTGAT (site TAGTGTACTAT) | 0.856
GAATAGCCATGGACCGGTTTTCCCGGTAATCCGTATTTGCA (site GAATCGCCTTG) | 0
ATCCAAGCATGGACCGGTTTTCCCGGTAATCCGTATTTGAG (site ATCGAAGCTCT) | 0.00681
GGAAAGACATGGACCGGTTTTCCCGGTAATCCGTATTTGCC (site GGATAGACTGG) | 0
TCCAATTCATGGACCGGTTTTCCCGGTAATCCGTATTTGCT (site TCCAATTCTGG) | 0
GTCTGCACATGGACCGGTTTTCCCGGTAATCCGTATTTGTA (site GTATGCACTTA) | 0.0171

Sequence | recombinant UMI read abundance (log10)
CTGTTTACATGGACCGGTTTTCCCGGTAATCCGTATTTGCT (site CTGTTTACTAG) | 2.02
AGGCTAGCATGGACCGGTTTTCCCGGTAATCCGTATTTGTT (site AGTCTAGCTAA) | 0.0182
TGTTCGCCATGGACCGGTTTTCCCGGTAATCCGTATTTGTA (site TGTTCACCTTA) | 0
AGGCACGCATGGACCGGTTTTCCCGGTAATCCGTATTTGGG (site ATGCACGCTCC) | 0.0107
GGAGCATCATGGACCGGTTTTCCCGGTAATCCGTATTTGAA (site GGAGCATCTTT) | 1.8
CTAGTATCATGGACCGGTTTTCCCGGTAATCCGTATTTGAC (site CGAGTATCTGT) | 0.849
TAATTAACATGGACCGGTTTTCCCGGTAATCCGTATTTGGT (site TAATTAACTAC) | 0.813
AGGAGGACATGGACCGGTTTTCCCGGTAATCCGTATTTGCC (site AGGAAGACTTG) | 0
TAACGAGCATGGACCGGTTTTCCCGGTAATCCGTATTTGGG (site TAACGAGCTCC) | 0.146
AGCTCAACATGGACCGGTTTTCCCGGTAATCCGTATTTGGG (site AGCTCACCTCC) | 0
TACTTGACATGGACCGGTTTTCCCGGTAATCCGTATTTGCA (site TACTTGACTTG) | 0.591
TTTGCGGCATGGACCGGTTTTCCCGGTAATCCGTATTTGCT (site TTTGCAGCTAG) | 0.0183
ACTGCATCATGGACCGGTTTTCCCGGTAATCCGTATTTGGA (site ACTGCATCTTC) | 1.22
GCGAAACCATGGACCGGTTTTCCCGGTAATCCGTATTTGGG (site GCGAATCCTCC) | 0
CCAGGTGCATGGACCGGTTTTCCCGGTAATCCGTATTTGAC (site CCAGGTGCTAT) | 0.0299
CGTCGAACATGGACCGGTTTTCCCGGTAATCCGTATTTGAA (site CGTCGAACTTT) | 0.822
GTGGAGGCATGGACCGGTTTTCCCGGTAATCCGTATTTGTG (site GTGGAGGCTCT) | 1.15
CGTGGAACATGGACCGGTTTTCCCGGTAATCCGTATTTGTT (site GGTGGAACTAA) | 0.0165
TTGCTAGCATGGACCGGTTTTCCCGGTAATCCGTATTTGAA (site TAGCTAGCTTT) | 0.016
TCATGAGCATGGACCGGTTTTCCCGGTAATCCGTATTTGGG (site TAATGAGCTCC) | 0.0178
TGTCTATCATGGACCGGTTTTCCCGGTAATCCGTATTTGAC (site TGTCTATCTGT) | 0
CAATAGCCATGGACCGGTTTTCCCGGTAATCCGTATTTGCC (site CAATAGCCTGG) | 0.755
TGTCCCCCATGGACCGGTTTTCCCGGTAATCCGTATTTGTA (site TGTGCCCCTTA) | 0.0174
GGAGTGGCATGGACCGGTTTTCCCGGTAATCCGTATTTGGT (site GGAGGGGCTAC) | 0.461
GTAAGGCCATGGACCGGTTTTCCCGGTAATCCGTATTTGAC (site TTAAGGCCTGT) | 0

Sequence | recombinant UMI read abundance (log10)
CCTAATACATGGACCGGTTTTCCCGGTAATCCGTATTTGGC (site GCTAATACTGC) | 0
CGGGTGTCATGGACCGGTTTTCCCGGTAATCCGTATTTGCC (site CGGGAGTCTGG) | 0.659
ATACAAGCATGGACCGGTTTTCCCGGTAATCCGTATTTGAG (site ATACAAGCTCT) | 2.31
GAGCTCACATGGACCGGTTTTCCCGGTAATCCGTATTTGAT (site TAGCTCACTAT) | 1.66
CAATATCCATGGACCGGTTTTCCCGGTAATCCGTATTTGTT (site CAATATCCTAA) | 1.7
CTAGGGTCATGGACCGGTTTTCCCGGTAATCCGTATTTGAC (site CTAGTATCTGT) | 1.43
GTTCGAACATGGACCGGTTTTCCCGGTAATCCGTATTTGGT (site GTTCGAACTAC) | 0.225
ATATGACCATGGACCGGTTTTCCCGGTAATCCGTATTTGAC (site ATATGACCTGT) | 0
GGTACATCATGGACCGGTTTTCCCGGTAATCCGTATTTGTT (site GGTACTTCTAA) | 0.00584
CCCTGGCCATGGACCGGTTTTCCCGGTAATCCGTATTTGCC (site CCCTCGCCTGG) | 0
CAGGGCTCATGGACCGGTTTTCCCGGTAATCCGTATTTGTT (site CAGGGCTCTAA) | 2.71
GTCCTATCATGGACCGGTTTTCCCGGTAATCCGTATTTGGA (site GTCCTATCTTC) | 1.41
GAAAGCTCATGGACCGGTTTTCCCGGTAATCCGTATTTGCC (site GAAAGCTCTGG) | 2.75
ACTGTATCATGGACCGGTTTTCCCGGTAATCCGTATTTGCA (site ACCGTATCTTG) | 1.91
CATTCGACATGGACCGGTTTTCCCGGTAATCCGTATTTGGG (site CAGTCGACTCC) | 0.0114
CGTTATACATGGACCGGTTTTCCCGGTAATCCGTATTTGAG (site CGTTAAACTCT) | 0
AAGCCCGCATGGACCGGTTTTCCCGGTAATCCGTATTTGGG (site AAGCGCGCTCC) | 0.0392
AGCAAGACATGGACCGGTTTTCCCGGTAATCCGTATTTGCA (site AGCAAGACTTG) | 2.01
CGGACCCCATGGACCGGTTTTCCCGGTAATCCGTATTTGTT (site CGGAATCCTAA) | 0.00407
CACTAGCCATGGACCGGTTTTCCCGGTAATCCGTATTTGCC (site CCCTAGCCTGG) | 0
ACATCTGCATGGACCGGTTTTCCCGGTAATCCGTATTTGTG (site ACATCTGCTCA) | 1.37
CTAGTATCATGGACCGGTTTTCCCGGTAATCCGTATTTGAC (site CTACTATCTTT) | 0.0334
TAGGTACCATGGACCGGTTTTCCCGGTAATCCGTATTTGTT (site TAGGTACCTAA) | 0.0119
CTCGACACATGGACCGGTTTTCCCGGTAATCCGTATTTGCT (site CTCTACACTAG) | 2.03
GTGGAGGCATGGACCGGTTTTCCCGGTAATCCGTATTTGTC (site GTGGAGGCTGA) | 2.67
